Source: patent US20060002913A1, “Use of histamine and related compounds to treat disorders affecting muscle function” (priority 2004, published 2006)

Key:
[1] = target: membrane bound non-mitochondrial oxidase of stimulated phagocytes (Homo sapiens, UniProt P04839); settings: substrate of the oxidase that converts oxygen to superoxide; cited from earlier work
[2] = test system: patient suffering from Acute Myelogenous Leukemia (AML) and fibromyalgia; settings: given with IL-2, subcutaneously two times per day, 0.5 mg per injection, 21-day cycles repeated for 18 months with 21-day intermissions
Protocol: A patient, suffering from Acute Myelogenous Leukemia (AML) and fibromyalgia received treatment with histamine dihydrochloride and IL-2. Histamine dihydrochloride was administered subcutaneously two times per day at a dosage of 0.5 mg per injection for a period of 21 consecutive days.
The above 21-day cycle was repeated for 18 months with 21-day intermissions between cycles.

[3] = test system: subjects suffering from muscle pain exacerbated by ROS and/or inflammatory cytokines; assay: Inhibition of muscle pain, self-rated pain scale 1 to 10 (Example 3); assay type: in vivo, human; settings: effective dose, after several weeks of treatment; groups of 10 subjects; vs placebo
Protocol: Subjects suffering from muscle pain exacerbated by ROS and/or inflammatory cytokines are identified. The subjects are asked to rate their pain on a scale of 1 to 10, with 1 indicating no pain or mild pain and 10 indicating severe pain. The subjects are then separated into 11 groups of 10 subjects each. […] Subjects in Group 11 are administered a placebo. After several weeks of treatment, subjects are again asked to rate their pain using the scale above.

[4] = test system: patient with amyotrophic lateral sclerosis; settings: orally 1 mg/day for six months
Protocol: A patient with amyotrophic lateral sclerosis received treatment with histamine dihydrochloride. Histamine dihydrochloride was administered orally at a dosage of 1 mg/day for a period of six months.

[5] = test system: individuals suffering from multiple sclerosis; settings: orally 10, 30, 50, 100, 200 and 1,000 mg; vs placebo
Protocol: Individuals suffering from multiple sclerosis are identified. The individuals are asked to fill out a questionnaire regarding commonly experienced symptoms experienced by MS patients as well as the rate and severity of each symptom. The individuals are then separated into 7 groups of 20 individuals. […] Individuals in Group 7 are administered a placebo. Following the course of treatment, the individuals are again asked to fill out the same questionnaire.

| SMILES | Km [1] [µM] | muscle pain, self-rated on a scale of 1 to 10 [3] | further results |
| --- | --- | --- | --- |
| NC(=O)C1=CN([C@@H]2O[C@H](COP(=O)(O)OP(=O)(O)OC[C@H]3O[C@@H](n4cnc5c(N)ncnc54)[C@H](O)[C@@H]3O)[C@@H](O)[C@H]2O)C=CC1 [NADH] | 450 |  |  |
| NC(=O)C1=CN([C@@H]2O[C@H](COP(=O)(O)OP(=O)(O)OC[C@H]3O[C@@H](n4cnc5c(N)ncnc54)[C@H](OP(=O)(O)O)[C@@H]3O)[C@@H](O)[C@H]2O)C=CC1 [NADPH] | 45 |  |  |
| Cl.Cl.NCCc1c[nH]cn1 [histamine dihydrochloride] |  | reduction in muscle pain | patient's symptoms (fibromyalgia muscle pain) [2]: symptoms disappeared while on treatment and returned during intermissions; progression of ALS [4]: arrested |
| NCCc1c[nH]cn1.O=P(O)(O)O [histamine phosphate] |  | reduction in muscle pain |  |
| NCCc1c[nH]cn1 [histamine] |  | reduction in muscle pain | rate and severity of symptoms associated with muscle damage (questionnaire) [5]: decrease in both the rate and severity of symptoms associated with muscle damage |
| NCCc1c[nH]c2ccc(O)cc12 [serotonin] |  | reduction in muscle pain |  |
